From US20190105381A1, “METHOD FOR PREPARING VIRAL PARTICLES WITH CYCLIC DINUCLEOTIDE AND USE OF SAID PARTICLES FOR TREATING CANCER” (priority 2016, published 2019)

Columns and labels:
HEK293 cells = type: cell-based, human; conditions: for effect on IFN induction by HIV-1-GFP: cGAS-reconstituted producer cells treated during virus preparation, 20 μM GW4869, 60 μM Ac-DEVD-CHO; for IFN response in target cells under pharmacological inhibition: cells treated 1 hour prior to infection, 5 μM, MOI=1
[1] = test system: Ova-specific CD8+ T cells; experiment: CD8+ T cell responses after subcutaneous immunization (tetramer, IFN-g ELISPOT); type: in vivo, mice; conditions: cGAMP at a far higher dose of cGAMP
[2] = test system: IFNβ promoter reporter (p125-F-Luc); type: cell-based, human; conditions: HEK293 cells transfected with 2 μg 2′-3′-cGAMP, 24 hours

Row | Molecule | effect on IFN induction by HIV-1-GFP (HEK293 cells) | IFN response in target cells under pharmacological inhibition (HEK293 cells) | further results
1 | O=C(/C=C/c1ccc(/C=C/C(=O)Nc2ccc(C3=NCCN3)cc2)cc1)Nc1ccc(C2=NCCN2)cc1 [GW4869] | did not diminish IFN induction | – | –
2 | Nc1nc2c(ncn2[C@@H]2O[C@@H]3COP(=O)(O)O[C@H]4[C@@H](O)[C@H](n5cnc6c(N)ncnc65)O[C@@H]4COP(=O)(O)O[C@@H]2[C@@H]3O)c(=O)[nH]1 [cGAMP, 2′-3′-cyclic GMP-AMP] | – | – | tumor-specific T cell response [1]: not able to significantly induce; IFN induction in response to cGAMP [2]: induce IFN
3 | Ac-DEVD-CHO | did not diminish IFN induction | – | –
4 | Cc1nnc(C(=O)NC(C)(C)c2nc(C(=O)NCc3ccc(F)cc3)c(O)c(=O)n2C)o1 [raltegravir] | – | independent of reverse transcription and integration | –
5 | Cc1ccnc2c1NC(=O)c1cccnc1N2C1CC1 [nevirapine] | – | independent of reverse transcription and integration | –
